What was measured:
[1] = system: mice (male CD1); assay: L5/L6 spinal nerve ligation (SNL) model of neuropathic pain, mechanical allodynia; assay type: in vivo; conditions: mAbs 900 μg/mouse each, gabapentin 100 mg/kg, 1 hour pretreatment
Method: Whether an anti-IL-1α and anti-IL-1β mAb combination therapy would produce efficacy in neuropathic pain conditions was examined in an L5/L6 spinal nerve ligation (SNL) model in mice (male CD1). Testing was performed six days after SNL surgery, 24 and 72 hours after animals were treated with mAb combination (900 μg/mouse of each mAb). […] The magnitude of efficacy (% MPE) was 72.20±14.39% at 24 hours and 80.62±12.33% at 72 hours (FIG. 19).

[2] = system: female BALB/c mice; assay: CFA (Complete Freund's Adjuvant) inflammatory pain model, mechanical allodynia (von Frey); assay type: in vivo, mouse; conditions: 48 hours after CFA, diclofenac 30 mg/kg
Method: The CFA (Complete Freund's Adjuvant) inflammatory pain model was used to test whether the anti-IL-1α and anti-IL-1β mAb combination would produce efficacy against a mechanical endpoint. Therefore, mechanical allodynia was assessed using von Frey monofilaments in animals (female BALB/c mice) 48 hours after they were injected intraplantar with CFA. […] Separate groups of animals were treated either with IgG isotype control or a combination of anti-IL-1α and anti-IL-1β mAbs (900 μg/mouse of each mAb) 30 hours after CFA injection. […] The magnitude of efficacy (% MPE) was 65.51±12.35% (FIG. 17B).

[3] = system: mice (female BALB/c); assay: Mouse carrageenan-induced inflammatory pain model, thermal hyperalgesia (paw withdrawal latency); assay type: in vivo; conditions: for thermal hyperalgesia / antinociceptive effect: Example 8, 48 and 96 hours, single mAb 900 μg, diclofenac 30 mg/kg; for paw withdrawal latency, carrageenan (injured) paw: mAbs 900 μg each at 30 hours, diclofenac 30 mg/kg p.o. 60 minutes before testing
Method: To evaluate whether neutralization of IL-1α and IL-1β produces antinociceptive effects in inflammatory pain conditions, anti-IL-1α and anti-IL-1β mAbs were evaluated for the ability to reverse established pain in the mouse carrageenan paw model of nociceptive pain.
The efficacy of the anti-IL-1α and anti-IL-1β mAbs was evaluated when administered alone or in combination in the mouse carrageenan model (FIG. 15). At 30 hours after intraplantar carrageenan injection: 900 μg of either anti-IL-1α mAb, anti-IL-1β mAb, or their combination were administered in different groups of mice. Thermal hyperalgesia testing was performed 48 and 96 hours after carrageenan. […] The antinociceptive effect in 900 μg combination group was 53±7% at 48 hours, and 82±11% at 96 hours.
Different groups of animals were treated either with vehicle or a combination of anti-IL-1α and anti-IL-1β mAbs (100, 300, or 900 μg/mouse of each mAb) 30 hours after carrageenan injection. […] The antinociceptive effect in 900 μg treatment group was 70±9% at 48 hours, and 62±4% at 96 hours. Diclofenac (30 mg/kg), a non-steroidal, anti-inflammatory analgesic, was included as positive control in the study, and it increased the mean paw withdrawal latency of the injured paw to 7.01±0.58 s at 48 hours and 7.48±0.34 s at 96 hours when administered p.o. 60 minutes before testing (p<0.01 at both time points).

[4] = system: human OA patients; conditions: literature (Cohen et al., ACR 2007); cited from earlier work
[5] = system: Male SV129 mice; assay: Destabilization of medial meniscus (DMM) model of osteoarthritis, cartilage degeneration (Chambers scores); assay type: in vivo, mouse; conditions: Example 3.3.6 (FIG. 7); 8 weeks; mAbs 6 mg/kg alone or in combination
Text: (§1) Male SV129 mice weighing approximately 30 grams, housed 5/cage, were anesthetized on Day 0 with ketamine/xylazine cocktail, administered intraperitoneally (ip), and then the medial collateral ligament was exposed by blunt dissection, and transected to reflect the meniscus toward the femur. The joint space was closed with 8-0 vicryl suture. The skin was closed with wound glue. For sham surgeries, a vertical skin incision was made over the medial aspect of the knee and the joint capsule was opened. The capsule was closed with 8-0 vicryl suture and the skin was closed with wound glue. Groups of animals were then treated with intraperitoneal (ip) injections of antibody or vehicle according to the study design table below. Two sex-matched, age-matched, and strain-matched naïve mice were also included in the study. Animals were euthanized after 8 weeks of treatment, and knee joints were harvested in 10% neutral buffered formalin.
Formalin-fixed samples were decalcified, and specimens were sectioned in the frontal plane into 15 step sections each. Each section was approximately 6 μm thick, and step sections were separated by 70 μm. All slides were stained with toluidine blue (T. Blue). Slides were assessed according to the Chambers method (Chambers et al. (2001) Arthritis Rheum 44:1455-65) for cartilage degeneration (see below) by a board-certified veterinary pathologist. Each of the four cartilage surfaces, the medial femoral condyle (MFC), the medial tibial plateau (MTP), the lateral femoral condyle (LFC), and the lateral tibial plateau (LTP), was scored from 0-6 according to the scale in the table below.
as §1, with “8-0 vicryl suture, and the” for “8-0 vicryl suture and the”, “injections of anti-mIL-1α monoclonal antibody, anti-mIL-1β (alone or in combination), mIL-1α/βDVD-Ig binding protein, or vehicle” for “injections of antibody or vehicle”, “design table below (Table 24). Animals were” for “design table below. Two sex-matched, age-matched, and strain-matched naïve mice were also included in the study. Animals were”, “weeks of treatment and knee” for “weeks of treatment, and knee”
Male SV129 mice weighing approximately 30 grams had the medial collateral ligament exposed by blunt dissection, and transected to reflect the meniscus toward the femur. The joint space was closed with 8-0 vicryl suture. The skin was closed with wound glue. For sham surgeries, a vertical skin incision was made over the medial aspect of the knee and the joint capsule was opened. The capsule was closed with 8-0 vicryl suture, and the skin was closed with wound glue. Groups of animals were then treated per os (po) or via intraperitoneal (ip) injections of vehicle or treatments according to the study design table below. Three sex-matched, age-matched, and strain-matched naïve mice were also included in the study. Animals were euthanized after 4 weeks of treatment, and knee joints were harvested in 10% neutral buffered formalin.

[6] = system: male DBA-1 mice; assay: Collagen-induced arthritis mouse model (rheumatoid arthritis); assay type: in vivo; conditions: therapeutic mode; 1-3 mg/kg intraperitoneally every other day after disease onset
Method: The therapeutic effects of anti-IL-1α, anti-IL-1β, combined anti-IL-1α/anti-IL-1β, and murine IL-1α/β DVD4-Ig, were evaluated in a collagen-induced arthritis mouse model well known in the art. Briefly, male DBA-1 mice were immunized with bovine type II collagen in CFA at the base of the tail. The mice were boosted with Zymosan intraperitoneally (i.p) at day 21. After disease onset at day 24-27, mice were selected and divided into separate groups of 10 mice each. […] To neutralize IL-1, mice were injected every other day with 1-3 mg/kg of anti-IL-1α mAb, anti-IL-1βmAb, combination of anti-IL-1α and anti-IL-1β mAbs, or murine IL-1α/β DVD4-Ig intraperitoneally. Mice were carefully examined three times a week for the visual appearance of arthritis in peripheral joints, and scores for disease activity determined.

[7] = system: DMM mice; assay: DMM model of osteoarthritis, mechanical allodynia (paw withdrawal threshold); assay type: in vivo, mouse; conditions: Example 5 (FIG. 12); 6 mg/kg ip twice per week for four weeks; day 28
Method: The DMM model also generates measurable pain in the mice. […] The efficacy of anti-IL-1α/β therapy was studied in the DMM animal model.
The potential of anti-IL-1 therapy to ameliorate pain was tested in the DMM mouse model of OA in terms of mechanical allodynia. Dosing of the combination of IL-1α and IL-1β mAbs was initiated on the day of the surgery and was repeated twice a week for 5 weeks. Animals were treated with PBS vehicle alone, with an IgG isotype control, or with a combination of anti-IL-1α and anti-IL-1β mAbs (at a dose of 6 mg/kg for each mAb). Animals were tested weekly for paw withdrawal threshold. […] This reduction in pain was seen as early as week 1 following treatment (data not shown).
To evaluate the effect of IL-1 therapy in established pain, animals in the IgG control group with established OA and mechanical allodynia were treated on day 35 with the combination of anti-IL-1α and anti-IL-1β monoclonal antibodies and the paw withdrawal threshold was tested 24 hours later (day 36).
The potential of anti-IL-1 therapy to ameliorate pain in the DMM mouse model of OA (see, above) in terms of mechanical allodynia was further evaluated. Dosing of the combination of IL-1α and IL-1β mAbs was initiated on the day of the surgery and was repeated twice a week for 4 weeks. […]

NCC1(CC(=O)O)CCCCC1 [gabapentin]
paw withdrawal threshold (von Frey) ([1]; at 24 hours): 0.858 ± 0.077 g | paw withdrawal threshold (von Frey) ([1]; at 72 hours): 1.138 ± 0.096 g

O=C(O)Cc1ccccc1Nc1c(Cl)cccc1Cl [Diclofenac]
paw withdrawal threshold, CFA injected paw ([2]; mAbs 900 μg/mouse each 30 hours after CFA, 1 hour pretreatment): 0.359 ± 0.088 g | magnitude of efficacy (% MPE) ([2]; mAbs 900 μg/mouse each): 64.51±10.20% | thermal hyperalgesia / antinociceptive effect [3]: significant attenuation of thermal hyperalgesia | paw withdrawal latency, carrageenan (injured) paw ([3]; Example 9 (FIG. 16A), at 48 hours): 7.01 ± 0.58 s | paw withdrawal latency, carrageenan (injured) paw ([3]; Example 9 (FIG. 16B), at 96 hours): 7.48 ± 0.34 s

Anakinra: IL-1 receptor antagonist
efficacy in OA trials with respect to symptoms and chondroprotection [4]: some efficacy

B1: 9H10: mouse anti-mouse IL-1α monoclonal antibody (clone 9H10) from IL-1α/β double KO mice (antibody, V domains shown)
VH: QVILKESGPGILQPSQTLSLTCSFSGFSLSTYGTAVNWIRQPSGKGLEWLAQIGSDDRKLYNPFLKSRITLSEDTSNSQVFLKITSVDTEDSATYYCANGVMEYWGLGTSVTVSS
VL: SIVMTQTPKFLLVSAGDRVTITCKASQSVNHDVAWYQQMPGQSPKLLIYFASNRYTGVPDRFTGSGYGTDFTFTISTVQAEDLAVYFCQQDYSSPYTFGGGTKLEIKR
modifications: heavy chain variable domain of 9H10; light chain variable domain of 9H10
notes: mouse anti-mouse IL-1α monoclonal antibody (clone 9H10) from IL-1α/β double KO mice
mean sum Chambers scores and mean maximum Chambers scores (cartilage degeneration) [5]: not statistically significant | reduction in mean arthritis score compared to control group [6]: 10% | paw withdrawal threshold (allodynia) [7]: allodynic (painful) | thermal hyperalgesia / antinociceptive effect [3]: no significant antinociceptive effect

Reference: US8889130B2, “Treatment of osteoarthritis and pain” (Abbvie Inc., priority 2011, dated 2014)
